The record followed here is ChEMBL document CHEMBL1122447, “2-Acetylpyridine thiosemicarbazones. 5. 1-[1-(2-Pyridyl)ethyl]-3-thiosemicarbazides as potential antimalarial agents” (1983).

For test [1], the system named is Plasmodium berghei. As to the kind of experiment: Antimalarial activity against Plasmodium berghei infected mice (Mus musculus) at 160 mg/kg; toxic in 3 of 5. Further details: dose 160 mg/kg; call rule not given here. Type of test: functional, organism-based.
Test [2] concerns Plasmodium berghei. The test is described as follows: Antimalarial activity against Plasmodium berghei infected mice (Mus musculus) at 640 mg/kg; toxic in 5 of 5. It counts as functional, organism-based. More on the design: dose 640 mg/kg.
Test [3] deals with Plasmodium berghei. The test is described as follows: Antimalarial activity against Plasmodium berghei infected mice (Mus musculus) at 160 mg/kg; cured 1 of 5. It counts as functional, organism-based. More on the design: dose 160 mg/kg.
The subject of test [4] is Plasmodium berghei. As to the kind of experiment: Antimalarial activity against Plasmodium berghei infected mice (Mus musculus) at 40 mg/kg; cured 1 of 5. Type of test: functional, organism-based. Further details: dose 40 mg/kg.
Test [5] deals with Plasmodium berghei. As to the kind of experiment: Antimalarial activity against Plasmodium berghei infected mice (Mus musculus) at 160 mg/kg; toxic in 1 of 5. More on the design: dose 160 mg/kg. It counts as functional, organism-based.
Test [6] has as its system Plasmodium berghei. As to the kind of experiment: Antimalarial activity against Plasmodium berghei infected mice (Mus musculus) at 80 mg/kg; toxic in 1 of 5. Type of test: functional, organism-based. Further details: dose 80 mg/kg.
Test [7] relates to Plasmodium berghei. The test is described as follows: Increased mean survival time in drug-sensitive Plasmodium berghei infected mice (Mus musculus) at 80 mg/kg; active. It counts as functional.
Test [8] relates to Plasmodium berghei. As to the kind of experiment: Antimalarial activity against Plasmodium berghei infected mice (Mus musculus) at 320 mg/kg; toxic in 3 of 5. It counts as functional, organism-based. Further details: dose 320 mg/kg.
Test [9] has as its system Plasmodium berghei. The test is described as follows: Antimalarial activity against Plasmodium berghei infected mice (Mus musculus) at 20 mg/kg; toxic in 1 of 5. Further details: dose 20 mg/kg. Type of test: functional, organism-based.
Test [10] has as its system Plasmodium berghei. The test is described as follows: Antimalarial activity against Plasmodium berghei infected mice (Mus musculus) at 320 mg/kg; toxic in 2 of 5. Type of test: functional, organism-based. More on the design: dose 320 mg/kg.
Test [11] relates to Plasmodium berghei. As to the kind of experiment: Increased mean survival time in drug-sensitive Plasmodium berghei infected mice (Mus musculus) at 40 mg/kg dose. It counts as functional.
Test [12] has as its system Plasmodium berghei. The test is described as follows: Increased mean survival time in drug-sensitive Plasmodium berghei infected mice (Mus musculus) at 20 mg/kg dose. It counts as functional.
The subject of test [13] is Plasmodium berghei. The test is described as follows: Increased mean survival time in drug-sensitive Plasmodium berghei infected mice (Mus musculus) at 160 mg/kg; cured 3 of 5. Type of test: functional, organism-based. Further details: dose 160 mg/kg.
Test [14] concerns Plasmodium berghei. As to the kind of experiment: Increased mean survival time in drug-sensitive Plasmodium berghei infected mice (Mus musculus) at 640 mg/kg; toxic in 2 of 5. Type of test: functional.
Test [15] deals with Plasmodium berghei. The test is described as follows: Increase in mean survival time in drug-sensitive Plasmodium berghei infected mice (Mus musculus) at 160 mg/kg dose. It counts as functional.
Test [16] has as its system Plasmodium berghei. As to the kind of experiment: Increased mean survival time in drug-sensitive Plasmodium berghei infected mice (Mus musculus) at 160 mg/kg; toxic in 1 of 5. It counts as functional, organism-based. More on the design: dose 160 mg/kg.
Test [17] deals with Plasmodium berghei. The test is described as follows: Increased mean survival time in drug-sensitive Plasmodium berghei infected mice (Mus musculus) at 320 mg/kg; toxic in 4 of 5. Type of test: functional, organism-based. Further details: dose 320 mg/kg.
The subject of test [18] is Plasmodium berghei. The test is described as follows: Increased mean survival time in drug-sensitive Plasmodium berghei infected mice (Mus musculus) at 640 mg/kg dose. It counts as functional.
Test [19] has as its system Plasmodium berghei. The test is described as follows: Increased mean survival time in drug-sensitive Plasmodium berghei in mice (Mus musculus) at 80 mg/kg dose. Type of test: functional.
The test system of test [20] is Plasmodium berghei. The test is described as follows: Increased mean survival time in drug-sensitive Plasmodium berghei infected mice (Mus musculus) at 5 mg/kg; cured 2 of 5. It counts as functional.
Test [21] has as its system Plasmodium berghei. As to the kind of experiment: Increased mean survival time in drug-sensitive Plasmodium berghei infected mice (Mus musculus) at 160 mg/kg; cured 1 of 5. Type of test: functional, organism-based. More on the design: dose 160 mg/kg.
The subject of test [22] is Plasmodium berghei. As to the kind of experiment: Antimalarial activity against Plasmodium berghei infected mice (Mus musculus) at 40 mg/kg; toxic in 5 of 5. Further details: dose 40 mg/kg. Type of test: functional, organism-based.
Test [23] concerns Plasmodium berghei. The test is described as follows: Increased MST in drug-sensitive Plasmodium berghei infected mice (Mus musculus) at 10 mg/kg; […]. It counts as functional, organism-based. Further details: dose 10 mg/kg.
The test system of test [24] is Plasmodium berghei. As to the kind of experiment: Antimalarial activity against Plasmodium berghei in mice (Mus musculus) at 40 mg/kg; toxic in 3 of 5. It counts as functional, organism-based. Further details: dose 40 mg/kg.
Test [25] concerns Plasmodium berghei. The test is described as follows: Increased mean survival time in drug-sensitive Plasmodium berghei infected mice (Mus musculus) at 40 mg/kg; active. It counts as functional.
The test system of test [26] is Plasmodium berghei. The test is described as follows: Antimalarial activity against Plasmodium berghei infected mice (Mus musculus) at 320 mg/kg; toxic in 5 of 5. It counts as functional, organism-based. Further details: dose 320 mg/kg.
For test [27], the system named is Plasmodium berghei. The test is described as follows: Increased mean survival time in drug-sensitive Plasmodium berghei infected mice (Mus musculus) at 640 mg/kg; cured 2 of 5. Further details: dose 640 mg/kg. It counts as functional, organism-based.
The test system of test [28] is Plasmodium berghei. As to the kind of experiment: Increased mean survival time in drug-sensitive Plasmodium berghei infected mice (Mus musculus) at 80 mg/kg; cures 4 of 5. It counts as functional, organism-based. Further details: dose 80 mg/kg.
Test [29] concerns Plasmodium berghei. As to the kind of experiment: Increased mean survival time in drug-sensitive Plasmodium berghei infected mice (Mus musculus) at 320 mg/kg; cured 2 of 5. It counts as functional, organism-based. Further details: dose 320 mg/kg.
For test [30], the system named is Plasmodium berghei. The test is described as follows: Increased mean survival time in drug-sensitive Plasmodium berghei infected mice (Mus musculus) at 160 mg/kg; cured 2 of 5. Further details: dose 160 mg/kg. It counts as functional, organism-based.
Test [31] has as its system Plasmodium berghei. As to the kind of experiment: Increased mean survival time in drug-sensitive Plasmodium berghei infected mice (Mus musculus) at 320 mg/kg; cured 4 of 5.
For test [32], the system named is Plasmodium berghei. The test is described as follows: Increased mean survival time in drug-sensitive Plasmodium berghei infected mice (Mus musculus) at 640 mg/kg; toxic in 5 of 5. It counts as functional, organism-based. More on the design: dose 640 mg/kg.
In test [33] the test system is Plasmodium berghei. The test is described as follows: Increased mean survival time in drug-sensitive Plasmodium berghei infected mice (Mus musculus) at 160 mg/kg; toxic in 5 of 5. Type of test: functional, organism-based. More on the design: dose 160 mg/kg.
The test system of test [34] is Plasmodium berghei. As to the kind of experiment: Increased mean survival time in drug-sensitive Plasmodium berghei infected mice (Mus musculus) at 40 mg/kg; toxic in 2 of 5. It counts as functional, organism-based. More on the design: dose 40 mg/kg.

Molecules are shown by their SMILES.

Take `CC1CCN(/C(S)=N/NC(C)c2ccccn2)CC1` (stereo not drawn): the Survival time result was “Toxic in 3 of 5 mice” in the test with Plasmodium berghei [1], “Toxic in 5 of 5 mice” with Plasmodium berghei [2], “Cured 1 of 5 mice” in the test on Plasmodium berghei [3] and “Cured 1 of 5 mice” in the test on Plasmodium berghei [4].

Consider `CC(N/N=C(\S)N(C)C1CCCCC1)c1ccccn1` (stereo not drawn), for which the Survival time entry in the test with Plasmodium berghei [5] is “Toxic in 1 of 5 mice”; in the test with Plasmodium berghei [6], “Toxic in 1 of 5 mice”; with Plasmodium berghei [7] it was 7.1 days; in the test with Plasmodium berghei [8] it was “Toxic in 3 of 5 mice”; in the test on Plasmodium berghei [9], “Toxic in 1 of 5 mice”; with Plasmodium berghei [10], “Cured 2 of 5 mice”. In addition, the Survival time in the test with Plasmodium berghei [11] is 3.7 days; in the test with Plasmodium berghei [12] it was 2.9 days; in the test with Plasmodium berghei [13], “Cured 3 of 5 mice”.

Regarding `C/C(=N\N=C(/S)NCc1ccccc1)c1ccccn1`, the figures for the Survival time in the test with Plasmodium berghei [14], in the test with Plasmodium berghei [15] and in the test with Plasmodium berghei [11] were 10.6 days, 3.7 days and 0.5 days, respectively.

Take `CC(N/N=C(\[SeH])N1CC2CCC(CC2)C1)c1ccccn1` (stereo not drawn): the Survival time result is “Cured 2 of 5 mice” in the test with Plasmodium berghei [16]; “Cured 4 of 5 mice; toxic in 1 of 5 mice” in the test with Plasmodium berghei [17]; -0.3 days with Plasmodium berghei [18]; 5.5 days with Plasmodium berghei [19]; 0.5 days in the test with Plasmodium berghei [11]; -0.3 days in the test with Plasmodium berghei [12].

As for `CC(N/N=C(\S)N1CC2CCC(CC2)C1)c1ccccn1` (stereo not drawn), the Survival time entry in the test on Plasmodium berghei [1] is “Toxic in 3 of 5 mice”; in the test with Plasmodium berghei [2] it was “Toxic in 5 of 5 mice”; with Plasmodium berghei [20], 7.9 days; in the test with Plasmodium berghei [9], “Cured 4 of 5 mice; toxic in 1 of 5 mice”; in the test with Plasmodium berghei [21], “Cured 1 of 5 mice”; in the test on Plasmodium berghei [22] it was “Toxic in 5 of 5 mice”. Further, the Survival time entry in the test on Plasmodium berghei [23] is listed as “Cured 2 of 5 mice”.

Regarding `CCOC(=O)N1CCN(/C(S)=N/NC(C)c2ccccn2)CC1` (stereo not drawn), the Survival time result in the test with Plasmodium berghei [1] was “Toxic in 5 of 5 mice”; in the test on Plasmodium berghei [2], “Toxic in 5 of 5 mice”; in the test with Plasmodium berghei [24] it was “Toxic in 3 of 5 mice”; in the test with Plasmodium berghei [12] it was 5.9 days; in the test on Plasmodium berghei [25] it was 7.2 days; with Plasmodium berghei [26] it was “Toxic in 5 of 5 mice”.

As to `C/C(=N\NC(=S)N1CCCCCC1)c1ccccn1`, the Survival time entry was “Cured 2 of 5 mice; toxic in 3 of 5 mice” with Plasmodium berghei [27]; “Cured 4 of 5 mice” with Plasmodium berghei [28]; “Cured 2 of 5 mice; toxic in 2 of 5 mice” in the test with Plasmodium berghei [29]; 6.2 days with Plasmodium berghei [11]; “Cured 3 of 5 mice; toxic in 1 of 5 mice” with Plasmodium berghei [13].

For `C/C(=N\N=C(/[SeH])N1CCCCCC1)c1ccccn1`, the Survival time result with Plasmodium berghei [27] was “Cured 2 of 5 mice”; in the test with Plasmodium berghei [15], 7.3 days; in the test with Plasmodium berghei [29] it was “Cured 2 of 5 mice”; in the test on Plasmodium berghei [19], 4.6 days; with Plasmodium berghei [11], 1.7 days.

For `C/C(=N\N=C(/S)N(C)C1CCCCC1)c1ccccn1`, the Survival time entry in the test on Plasmodium berghei [30] was “Cured 2 of 5 mice”; in the test on Plasmodium berghei [18] it was 12.1 days; with Plasmodium berghei [31], “Cured 4 of 5 mice”; with Plasmodium berghei [19], 9.6 days; in the test with Plasmodium berghei [11] it was 3.7 days.

In the case of `CCOC(=O)N1CCN(/C(S)=N/N=C(\C)c2ccccn2)CC1`, the Survival time entry in the test on Plasmodium berghei [32] was “Toxic in 5 of 5 mice”; with Plasmodium berghei [33] it was “Toxic in 5 of 5 mice”; in the test with Plasmodium berghei [34] it was “Cured 2 of 5 mice; toxic in 2 of 5 mice”.
